Reference: publication PMC9025555, “Chiral Recognition R- and RS- of New Antifungal: Complexation/Solubilization/Dissolution Thermodynamics and Permeability Assay” (Pharmaceutics, 2022)
Converted amounts (≈) assume the structure as drawn. Blank lines part the entries; values can stand above or below the compound they belong to.

Experiments:
[1] = set-up: method as in doi:10.1016/j.molliq.2021.116535; settings: cited from earlier work
[2] = Phase solubility study (shake-flask) in buffers with 2-HP-β-CD; settings: for order of the solubility: compared with reported FCZ and L-173; for solubility at 3 days: thermodynamic from solid, solubility in pure buffer solution, pure buffer
Protocol: An excess amount of the substance was placed in the glass screw-capped vials with the solvent. The vials were stirred in an air thermostat for a certain period of time (a period of 3 days was estimated to be enough for reaching the equilibrium between the solid and the solvent). Then, the saturated solutions were kept in a thermostat in mild conditions no less than 12 h and thereafter centrifuged at a fixed temperature (Biofuge pico, Thermo Electron LED GmbH, Langenselbold, Germany) for 10 min at 12,000 rpm. […] The experimental results were reported as an average of at least three replicated experiments. Temperature uncertainty was ±0.1 K. The sensitivity of UV spectroscopic determinations was characterized by the values of the limit of detection (LOD)/limit of quantification (LOQ).

in vitro = in vitro ADME; settings: pH 7.4, pH 7.4; CD 0.01087 M; 310.15 K; read-out: Permeability Coefficient (Papp)
Protocol: Permeability coefficients of RS-186 and R-98 were measured through the PermeaPad barrier (PHABIOC, Germany, Espelkamp, www.permeapad.com, accessed on 20 May 2021) of an effective surface area of 0.785 cm^2 in a vertical type of Franz diffusion cell (PermeGear, Inc., Hellertown, PA, USA) with 7 mL volume. PermeaPad is a biomimetic membrane proposed by di Cagno and Bauer-Brandl for the fast screening of the permeability of the marketed drugs and drug-like compounds. In brief, the barrier was mounted between the donor and receptor chambers. The donor chamber was filled with a stock solution of the investigated substance in buffer solution at pH 2.0 or pH 7.4 and was stirred vigorously during the permeability experiment. The receptor compartment contained 1 mL of the respective fresh buffer. The system was thermostated at 310.15 ± 0.1 K. A probe of 0.5 mL was withdrawn every 30 min from the receptor chamber and replaced with an equal amount of the respective fresh buffer. The permeation process followed the reverse dialysis. The withdrawn samples were analyzed in 96-well UV black plate (Costar) via spectrophotometer (Spectramax 190; Molecular devices, Molecular Devices Corporation, California, CA, USA) at the appropriate wavelength. The permeation profiles were plotted as the amount of the permeated drug over the surface area ( dQ/A ) versus the time ( t ). The flux ( J ) was calculated as a slope of permeation profiles according to the equation:(6) J=dQ/A×dt
The apparent permeability coefficient ( Papp ) was calculated by normalizing the flux measured over the concentration of the drug in the donor compartment ( C0 ), as described by the equation:(7) Papp=J/Co
Each permeability experiment was repeated at least 3 times and the average value of Papp was determined.

[3] = cited from earlier work

- order of the solubility ([2]; pH 2.0): (FCZ) > (RS-186 ≥ R-98) > (L-173)
- order of the solubility ([2]; pH 7.4): (FCZ) > (R-98 ≥ RS-186) >> (L-173)
Compound: OC(Cn1cncn1)(Cn1cncn1)c1ccc(F)cc1F [FCZ, fluconazole]
- Papp (PermeaPad) [1]: 190 nm/s

- order of the solubility ([2]; pH 2.0): (FCZ) > (RS-186 ≥ R-98) > (L-173)
- order of the solubility ([2]; pH 7.4): (FCZ) > (R-98 ≥ RS-186) >> (L-173)
Compound: O=C(CN1C(=O)S/C(=C\c2ccc(Cl)cc2)C1=O)N1CCN(CC(O)(Cn2cncn2)c2ccc(F)cc2F)CC1 [L-173, (5Z)-5-[(4-chlorophenyl)methylidene]-3-(2-{4-[2-(2,4-difluorophenyl)-2-hydroxy-3-(1H-1,2,4-triazol-1-yl)propyl]piperazin-1-yl}-2-oxoethyl)-1,3-thiazolidine-2,4-dione, reference compound]

Compound: O=C1S/C(=C\c2ccc(Cl)cc2)C(=O)N1CC(O)CN1CCN(CC(O)(Cn2cncn2)c2ccc(F)cc2F)CC1 (stereo not shown) [R-98, (Z)-5-(4-chlorobenzylidene)-3-(3-(4-(2-(2,4-difluorophenyl)-2-hydroxy-3-(1H-1,2,4-triazol-1-yl)propyl)piperazin-1-yl)-2-hydroxypropyl)thiazolidine-2,4-dione]
- Papp (in vitro): 11.9 nm/s
- solubility at 3 days ([2]; pH 2, aqueous buffer, pH 2.0): 620 µM (≈ 384 µg/mL)
- solubility at 3 days ([2]; pH 7.4, aqueous buffer, pH 7.4): 18 µM (≈ 11.1 µg/mL)

Compound: CC(C)Cc1ccc(C(C)C(=O)O)cc1 (stereo not shown) [ibuprofen]
- greater solubility of enantiomer against the racemate ([3]; pH 1.5): twice

Compound: CC(C)NCC(O)COc1cccc2ccccc12.Cl (stereo not shown) [propranolol HCl]
- greater solubility of racemic compound as compared to enantiomer [3]: 3.7 fold
